Source: patent US6866995B1, “Method to enable assessment of growth and death of micro-organisms” (priority 1999, dated 2005)
Read-outs that look alike come from different tables or passages of the source.

Key:
[1] = system: E. coli with plasmid pGFP+luc*; type: cell-based, E. coli strain MC1061; conditions: 5 min
Procedure: Environ. Microbiol. 64: 515-519.
The measurements were done with a combined fluoro- and luminometer, Fluoroscan Ascent FL, provided by Labsystems Ltd. (Helsinki, Finland). Cell growth was simultaneously followed with a flow cytometer.
For the measurements, 100 μl of bacterial culture was pipetted into the microtiter plate wells. Fluorescence was measured using 485 nm for excitation and 510 nm for emission. Measuring time was 20 ms. After the fluorescence measurement 100 μl of luciferin in 0.1 M citric acid-sodium citrate buffer (pH 5.0) was dispensed into the wells and the plate was shaken for two minutes (shaking diameter 1 mm, 1 020 rpm), after which luminescence was recorded with a measuring time of 1000 ms.

[2] = system: E. coli with plasmid pGFP+luc*; conditions: with increased ethanol concentration, 5 min, FIG. 5
Procedure: (§1) One colony from a pure culture plate was inoculated in 5 ml of LB-medium with ampicillin (100 μg/ml) and grown at +37° C. in a shaker, 250 rpm, for about three hours. After that, the number of cells per milliliter was determined with flow cytometry by using fluorescent spherical latex particles as a reference. One million cells were then removed to an erlenmeyer with 50 ml of LB medium and ampicillin. The culture was grown over night in a shaker, 190 rpm, at room temperature to prevent the culture from growing into the stationary phase during the night. In the morning, the culture was transferred to and grown in a shaker, 330 rpm, until the stationary phase was reached or used after growth at +30° C. for about 1 h to study the influence of ethanol or serum complement as described below.
Ethanol (Aa, Primalco Oy) was diluted into pure water to obtain concentrations of 50, 45, 25, 10, 5, 1 and 0% of ethanol when 500 μl of said dilution was added to 500 μl of said culture in an eppendorf tube. The mixture was vortexed and incubated for 5 minutes before measuring fluorescence and luminescence. Live cells were again counted by plating and also by live/dead staining. […] After staining, cells are passed through a flow cytometer, with which dead and live cells can be differentiated and their proportion determined. […]

[3] = system: E. coli with plasmid pGFP+luc*; conditions: for death: incubation 5 min, 30° C., FIGS. 4 and 5 (plating and live/dead staining)
Procedure: as §1
Ethanol (Aa, Primalco Oy) was diluted into pure water to obtain concentrations of […], 25, 10, 5, 1 and 0% of ethanol when 500 μl of said dilution was added to 500 μl of said culture in an eppendorf tube. The mixture was vortexed and incubated for 5 minutes before measuring fluorescence and luminescence. Live cells were again counted by plating and also by live/dead staining. In the live/dead protocol used the stain cyto 9 stains all cells whereas propidium iodide stains only the dead cells. After staining, cells are passed through a flow cytometer, with which dead and live cells can be differentiated and their proportion determined. (Virta et al. (1998) Appl. Environ. Microbiol. 64: 515-519.)
The influence of serum complement on the said recombinant E. coli strain was studied using an incubation time of 90 min as described for a different recombinant E. coli strain used in Virta et al. (1998) Appl. Environ. Microbiol. 64: 515-519.
Samples for plating were diluted 10^2 to 10^7 fold with 150 mM NaCl and plated onto L agar plates (L broth containing 1.6% agar). Colonies were counted after overnight incubation at 37° C.

`CCO` [ethanol, Ethanol] was tested, and the fluorescence ([1]; whatever the ethanol concentration (0-50%), FIG. 2) was “essentially constant”, the luminescence ([1]; with increased ethanol concentration, FIG. 3) was “dropped dramatically” and the “percentage of live cells according to the live/dead staining” value [2] was “dramatically decreasing”. The death ([3]; ethanol concentrations above 10%) was “very pronounced significance”, the death ([3]; ethanol concentrations below 5%) was “more or less unsignificant” and the “live cell count according to plate count” value ([3]; with increased ethanol concentration, 5 min, FIG. 4) was “dramatically decreasing”.
